Earlier results on 2 compounds are cited in patent US20240041743A1, “SYNERGISTIC TETRAPEPTIDE COMBINATION” (BASF CORPORATION, priority 2017, published 2024).

Data set [1] relates to skin firmness. To be noted: 3% Dermican.
Data set [2] relates to skin texture, skin smoothing, firmness and elasticity. To be noted: 3% Syniorage.

SMILES strings stand for the structures. Residues, ends and D or L forms follow the SMILES beside them.

As for `CC(=O)N[C@@H](CCC(N)=O)C(=O)N[C@@H](CC(=O)O)C(=O)N[C@H](C(=O)N[C@@H](Cc1c[nH]cn1)C(=O)O)C(C)C` [Dermican™, N-Acetyl-Glutaminyl-Aspartyl-Valyl-Histidine] (Ac-QDVH-OH), in data set [1], the “bi-daily application needed to achieve an improvement of skin firmness” value was 4 months. The “improvement on skin firmness after the first 2 months of application” value in data set [1] (bi-daily application, first 2 months) is “no improvement was observed”.
Take `CC(=O)N1CCC[C@H]1C(=O)N1CCC[C@H]1C(=O)N[C@@H](Cc1ccc(O)cc1)C(=O)N[C@@H](CC(C)C)C(=O)O` [Syniorage™, N-Acetyl-Prolyl-Prolyl-Tyrosyl-Leucine] (Ac-PPYL-OH): the “bi-daily application needed to improve skin texture, skin smoothing, and biomechanical properties of firmness and elasticity” value in data set [2] is reported as 2 months.
